According to patent US8889878B2, “Haloalky-substituted amides as insecticides and acaricides” (Bayer CropScience AG, priority 2009, dated 2014):

Legend:
[1] = logP by HPLC on reverse-phase column (EEC Directive 79/831 Annex V.A8); type: physicochemical; conditions: for chromatographic logP: reverse-phase C18 HPLC column
Method: The logP values reported in the above Tables and Preparation Examples were determined according to EEC Directive 79/831 Annex V.A8 by HPLC (High Performance Liquid Chromatography) on a reverse-phase column (C18). Temperature 43° C.

[2] = tested on: armyworm (Spodoptera frugiperda); assay: Spodoptera frugiperda test (SPODFR spray treatment), Example 15; type: in vivo; conditions: application rate 100 g/ha, maize leaf discs sprayed, after 7 days
Method: Spodoptera frugiperda Test (SPODFR Spray Treatment)
• Solvent: 78.0 parts by weight of acetone • 1.5 parts by weight of dimethylformamide • Emulsifier: 0.5 part by weight of alkylaryl polyglycol ether
To prepare an appropriate active ingredient formulation, 1 part by weight of active ingredient is mixed with the stated amounts of solvent and emulsifier, and the concentrate is diluted with emulsifier-containing water to the desired concentration. Leaf discs from maize (Zea mays) are sprayed with an active ingredient formulation of the desired concentration and, after drying, populated with caterpillars of the armyworm (Spodoptera frugiperda).
After 7 days, the efficacy in % is determined. 100% means that all caterpillars were killed; 0% means that no caterpillars were killed.

[3] = HPLC-MS, HPLC on reverse-phase column
[4] = HPLC, C18 reverse phase, 43° C., acidic range pH 2.7, calibration with alkan-2-ones
[5] = pH 2.7, HPLC, C18 reverse phase, 43° C., acidic range pH 2.7, calibration with alkan-2-ones

Structure (SMILES) | logP [1, 4] | chromatographic logP [1, 5] | further results
O=C(/C=C/c1ccc(CNC(=O)C2COC(=O)C2)c(C(F)(F)F)c1)NC(c1cccc(C(F)(F)F)c1)C(F)(F)F (stereo not drawn) [Ia-269] |  |  | logP [1, 3]: HPLC-MS: logP = 3.34; mass
O=C(/C=C/c1ccc(C(=O)NC2CC2)c(C(F)(F)F)c1)NC(c1cc(Cl)c(Cl)c(Cl)c1)C(F)(F)F (stereo not drawn) [Ia-283] |  |  | logP [1, 3]: HPLC-MS: logP = 4.1; mass
O=C(/C=C/c1ccc(C(=O)NCc2ccccc2)c(C(F)(F)F)c1)NC(c1ccncc1)C(F)(F)F (stereo not drawn) [Ib-1] | HPLC-MS: logP = 3.02 mass (m/z): |  | 
N#Cc1ccc2cc(C(=O)NC(c3cccc(C(F)(F)F)c3)C(F)(F)F)oc2c1 (stereo not drawn) [Ic-3] | HPLC-MS: logP = 3.72; mass |  | 
N#Cc1ccc2oc(C(=O)NC(c3ccc(Cl)c(Cl)c3)C(F)(F)F)cc2c1 (stereo not drawn) [Ic-5] | HPLC-MS: logP = 3.95; mass |  | 
NC(=O)c1ccc2oc(C(=O)NC(c3cccc(C(F)(F)F)c3)C(F)(F)F)cc2c1 (stereo not drawn) [Ic-6] | HPLC-MS: logP = 2.69; mass |  | 
N#Cc1ccc2oc(C(=O)NC(c3ccc(Cl)cc3Cl)C(F)(F)F)cc2c1 (stereo not drawn) [Ic-7] | HPLC-MS: logP = 4.04; mass |  | 
N#Cc1ccc2cc(C(=O)NC(c3cccc(C(F)(F)F)c3)C(F)(F)F)[nH]c2c1 (stereo not drawn) [Ic-8] | HPLC-MS: logP = 3.51; mass |  | 
CS(=O)(=O)c1ccc2[nH]c(C(=O)NC(c3cccc(C(F)(F)F)c3)C(F)(F)F)cc2c1 (stereo not drawn) [Ic-9] | HPLC-MS: logP = 2.92; mass |  | 
C=CCC(=O)NCc1ccc2oc(C(=O)NC(c3cccc(C(F)(F)F)c3)C(F)(F)F)cc2c1 (stereo not drawn) [Ic-13] | HPLC-MS: logP = 3.24; mass |  | 
CCC(=O)NCc1ccc2oc(C(=O)NC(c3cccc(C(F)(F)F)c3)C(F)(F)F)cc2c1 (stereo not drawn) [Ic-14] | HPLC-MS: logP = 3.09; mass |  | 
NC(=O)c1cc2cc(C(=O)NC(c3cccc(C(F)(F)F)c3)C(F)(F)F)oc2cc1F (stereo not drawn) [Ic-16] | HPLC-MS: logP = 2.88; mass |  | 
O=C(NC(c1cccc(C(F)(F)F)c1)C(F)(F)F)c1cc2cc(S(=O)(=O)C(F)(F)F)ccc2[nH]1 (stereo not drawn) [Ic-17] | HPLC-MS: logP = 4.19; mass |  | 
Cn1c(C(=O)NC(c2cccc(C(F)(F)F)c2)C(F)(F)F)cc2cc(Cl)c(C(=O)NC3CC3)cc21 (stereo not drawn) [Ic-48] | HPLC-MS: logP = 3.33; mass |  | 
O=C(/C=C/c1ccc(C(=O)NC2CC2)c(C(F)(F)F)c1)NC(c1cccc(F)c1)C(F)F (stereo not drawn) [Id-2] | HPLC-MS: logP = 2.68; mass |  | 
O=C(/C=C/c1ccc(C(=O)NC2CC2)c(C(F)(F)F)c1)NC(c1cccc(Cl)c1)C(F)F (stereo not drawn) [Id-3] | HPLC-MS: logP = 2.92; mass |  | 
CC(NC(=O)CC1CC1)c1ccc(/C=C/C(=O)NC(c2cccc(C(F)(F)F)c2)C(F)(F)F)nc1 (stereo not drawn) [If-3] |  |  | efficacy in % [2]: 100%
O=C(NCc1ccccc1)c1ccc(Br)cc1C(F)(F)F [N-Benzyl-4-bromo-2-(trifluoromethyl)benzamide] |  | 2.89 | 
O=C(NC1CC1)c1cnc(I)cc1C(F)(F)F [N-Cyclopropyl-6-iodo-4-(trifluoromethyl)nicotinamide] |  | 1.92 | 
CCC(=O)NC(C)c1ccc(Br)cc1F (stereo not drawn) [N-[1-(4-Bromo-2-fluorophenyl)ethyl]propanamide] |  | 2.19 | 
FC(F)(F)c1cc(Br)ccc1CNc1ccccn1 [N-[4-Bromo-2-(trifluoromethyl)benzyl]pyridin-2-amine] |  | 1.57 | 
C=CC(=O)NC(c1cccc(C(F)(F)F)c1)C(F)(F)F (stereo not drawn) [N-{2,2,2-Trifluoro-1-[3-(trifluoromethyl)phenyl]ethyl}acrylamide] |  | 2.75 | 
CC(C)(C)OC(=O)c1ccc(C=O)c(O)c1 [tert-Butyl 4-formyl-3-hydroxybenzoate] |  | 3.11 | 
CC(C)(C)OC(=O)NCc1ccc(Br)cc1C(F)(F)F [tert-Butyl [4-bromo-2-(trifluoromethyl)benzyl]carbamate] |  | 4.13 | 
CC(C)(C)OC(=O)NCc1ccc(/C=C/C(=O)NC(c2cccc(C(F)(F)F)c2)C(F)(F)F)cc1C(F)(F)F (stereo not drawn) [tert-Butyl {4-[1E)-3-oxo-3-({2,2,2-trifluoro-1-[3-(trifluoromethyl)phenyl]ethyl}amino)prop-1-en-1-yl]-2-(trifluoromethyl)benzyl}carbamate] |  |  | chromatographic logP [1, 4]: 4.4
CC(C)(C)OC(=O)NC1CCc2cc(/C=C/C(=O)NC(c3cccc(C(F)(F)F)c3)C(F)(F)F)ccc21 (stereo not drawn) [tert-Butyl {5-[(1E)-3-oxo-3-({2,2,2-trifluoro-1-[3-(trifluoromethyl)phenyl]ethyl}amino)prop-1-en-1-yl]-2,3-dihydro-1H-inden-1-yl}carbamate] |  | 4.44 | 
NC(c1cc(F)cc(C(F)(F)F)c1)C(F)(F)F (stereo not drawn) [α,3-Bis(trifluoromethyl)-5-fluorobenzenemethanamine] |  | 2.51 | 
